Measured values reported in the CheMixHub ionic liquid set.

Test: xn = mol fraction of the nth substance listed

CCCC[n+]1ccn(C)c1.[Cl-] + O
Details	electrical conductivity [S/m]	viscosity [mPa·s]
278.15 K, 100 kPa, x1 = 9.568e-05	–	1.532
278.15 K, 100 kPa, x1 = 0.000202	–	1.539
278.15 K, 100 kPa, x1 = 0.0003808	–	1.545
278.15 K, 100 kPa, x1 = 0.0005628	–	1.555
278.15 K, 100 kPa, x1 = 0.0007322	–	1.561
278.15 K, 100 kPa, x1 = 0.0009239	–	1.57
278.15 K, 100 kPa, x1 = 0.001099	–	1.576
278.15 K, 100 kPa, x1 = 0.001363	–	1.587
278.15 K, 100 kPa, x1 = 0.001909	–	1.608
283.15 K, 100 kPa, x1 = 9.568e-05	–	1.314
283.15 K, 100 kPa, x1 = 0.000202	–	1.318
283.15 K, 100 kPa, x1 = 0.0003808	–	1.325
283.15 K, 100 kPa, x1 = 0.0005628	–	1.332
283.15 K, 100 kPa, x1 = 0.0007322	–	1.339
283.15 K, 100 kPa, x1 = 0.0009239	–	1.348
283.15 K, 100 kPa, x1 = 0.001099	–	1.355
283.15 K, 100 kPa, x1 = 0.001363	–	1.365
283.15 K, 100 kPa, x1 = 0.001909	–	1.377
288.15 K, 100 kPa, x1 = 9.568e-05	–	1.146
288.15 K, 100 kPa, x1 = 0.000202	–	1.149
288.15 K, 100 kPa, x1 = 0.0003808	–	1.155
288.15 K, 100 kPa, x1 = 0.0005628	–	1.161
288.15 K, 100 kPa, x1 = 0.0007322	–	1.168
288.15 K, 100 kPa, x1 = 0.0009239	–	1.178
288.15 K, 100 kPa, x1 = 0.001099	–	1.18
288.15 K, 100 kPa, x1 = 0.001363	–	1.189
288.15 K, 100 kPa, x1 = 0.001909	–	1.198
293.15 K, 100 kPa, x1 = 0.0003808	–	1.017
293.15 K, 100 kPa, x1 = 0.0005628	–	1.021
293.15 K, 100 kPa, x1 = 0.0007322	–	1.027
293.15 K, 100 kPa, x1 = 0.0009239	–	1.033
293.15 K, 100 kPa, x1 = 0.001099	–	1.036
293.15 K, 100 kPa, x1 = 0.001363	–	1.044
293.15 K, 100 kPa, x1 = 0.001909	–	1.053
293.15 K, 101 kPa, x2 = 0.4982	–	240
293.15 K, 101 kPa, x2 = 0.9502	–	2.57
298.15 K, 100 kPa, x1 = 0.000202	–	0.9
298.15 K, 100 kPa, x1 = 0.0003808	–	0.904
298.15 K, 100 kPa, x1 = 0.0005628	–	0.908
298.15 K, 100 kPa, x1 = 0.0007322	–	0.913
298.15 K, 100 kPa, x1 = 0.0009239	–	0.918
298.15 K, 100 kPa, x1 = 0.001099	–	0.922
298.15 K, 100 kPa, x1 = 0.001363	–	0.928
298.15 K, 100 kPa, x1 = 0.001909	–	0.936
298.15 K, 101 kPa, x1 = 0.009814	3.03	–
298.15 K, 101 kPa, x2 = 0.8034	3.08	12.6
298.15 K, 101 kPa, x2 = 0.9259	6.29	–
298.15 K, 101 kPa, x2 = 0.9476	6.24	–
298.15 K, 101 kPa, x2 = 0.9647	5.76	–
298.15 K, 101 kPa, x2 = 0.9787	4.73	–
298.15 K, 101.3 kPa, x1 = 8.71e-06	0.00583	–
298.15 K, 101.3 kPa, x1 = 1.208e-05	0.00794	–
298.15 K, 101.3 kPa, x1 = 1.485e-05	0.00965	–
298.15 K, 101.3 kPa, x1 = 1.707e-05	0.01101	–
298.15 K, 101.3 kPa, x1 = 1.937e-05	0.01241	–
298.15 K, 101.3 kPa, x1 = 2.164e-05	0.0138	–
298.15 K, 101.3 kPa, x1 = 2.397e-05	0.0152	–
298.15 K, 101.3 kPa, x1 = 2.6e-05	0.0164	–
298.15 K, 101.3 kPa, x1 = 2.824e-05	0.0177	–
298.15 K, 101.3 kPa, x1 = 3.029e-05	0.019	–
298.15 K, 101.3 kPa, x1 = 0.0009038	–	0.911
298.15 K, 101.3 kPa, x1 = 0.000929	–	0.908
298.15 K, 101.3 kPa, x1 = 0.001008	–	0.919
298.15 K, 101.3 kPa, x1 = 0.001815	–	0.928
298.15 K, 101.3 kPa, x1 = 0.00182	–	0.935
298.15 K, 101.3 kPa, x1 = 0.001824	–	0.928
298.15 K, 101.3 kPa, x1 = 0.003602	–	0.971
303.15 K, 100 kPa, x1 = 9.568e-05	–	0.803
303.15 K, 100 kPa, x1 = 0.000202	–	0.806
303.15 K, 100 kPa, x1 = 0.0003808	–	0.81
303.15 K, 100 kPa, x1 = 0.0005628	–	0.813
303.15 K, 100 kPa, x1 = 0.0007322	–	0.817
303.15 K, 100 kPa, x1 = 0.0009239	–	0.82
303.15 K, 100 kPa, x1 = 0.001099	–	0.823
303.15 K, 100 kPa, x1 = 0.001363	–	0.828
303.15 K, 100 kPa, x1 = 0.001909	–	0.837
303.15 K, 101 kPa, x2 = 0.8999	–	3.82
308.15 K, 100 kPa, x1 = 9.568e-05	–	0.725
308.15 K, 100 kPa, x1 = 0.000202	–	0.727
308.15 K, 100 kPa, x1 = 0.0003808	–	0.73
308.15 K, 100 kPa, x1 = 0.0005628	–	0.733
308.15 K, 100 kPa, x1 = 0.0007322	–	0.737
308.15 K, 100 kPa, x1 = 0.0009239	–	0.74
308.15 K, 100 kPa, x1 = 0.001099	–	0.742
308.15 K, 100 kPa, x1 = 0.001363	–	0.746
308.15 K, 100 kPa, x1 = 0.001909	–	0.754
308.15 K, 101 kPa, x2 = 0.4982	–	92
308.15 K, 101.3 kPa, x1 = 0.0009038	–	0.737
308.15 K, 101.3 kPa, x1 = 0.00092	–	0.733
308.15 K, 101.3 kPa, x1 = 0.000929	–	0.733
308.15 K, 101.3 kPa, x1 = 0.001008	–	0.74
308.15 K, 101.3 kPa, x1 = 0.001815	–	0.748
308.15 K, 101.3 kPa, x1 = 0.00182	–	0.754
308.15 K, 101.3 kPa, x1 = 0.001822	–	0.751
308.15 K, 101.3 kPa, x1 = 0.001824	–	0.747
310.15 K, 101.3 kPa, x1 = 0.0009038	–	0.71
310.15 K, 101.3 kPa, x1 = 0.00092	–	0.705
310.15 K, 101.3 kPa, x1 = 0.000929	–	0.704
310.15 K, 101.3 kPa, x1 = 0.001008	–	0.712
310.15 K, 101.3 kPa, x1 = 0.001815	–	0.722
310.15 K, 101.3 kPa, x1 = 0.00182	–	0.728
310.15 K, 101.3 kPa, x1 = 0.001822	–	0.722
310.15 K, 101.3 kPa, x1 = 0.001824	–	0.717
313.15 K, 100 kPa, x1 = 9.568e-05	–	0.658
313.15 K, 100 kPa, x1 = 0.000202	–	0.66
313.15 K, 100 kPa, x1 = 0.0003808	–	0.663
313.15 K, 100 kPa, x1 = 0.0005628	–	0.665
313.15 K, 100 kPa, x1 = 0.0007322	–	0.668
313.15 K, 100 kPa, x1 = 0.0009239	–	0.671
313.15 K, 100 kPa, x1 = 0.001099	–	0.673
313.15 K, 100 kPa, x1 = 0.001363	–	0.677
313.15 K, 100 kPa, x1 = 0.001909	–	0.686
318.15 K, 101.3 kPa, x1 = 0.0009038	–	0.613
318.15 K, 101.3 kPa, x1 = 0.00092	–	0.608
318.15 K, 101.3 kPa, x1 = 0.000929	–	0.607
318.15 K, 101.3 kPa, x1 = 0.001008	–	0.615
318.15 K, 101.3 kPa, x1 = 0.001815	–	0.624
318.15 K, 101.3 kPa, x1 = 0.00182	–	0.625
318.15 K, 101.3 kPa, x1 = 0.001822	–	0.623
318.15 K, 101.3 kPa, x1 = 0.001824	–	0.618
